# Read-outs that look alike come from different tables or passages of the source.
# Experiments:
# GDH [1] = target: T1, GDH (Bos taurus, UniProt P00366); assay: steady state kinetic analysis of reductive amination, NADH or 2-oxoglutarate varied (Lineweaver-Burke plots); type: biochemical, bovine; set-up: Y-intercept (Lineweaver-Burke): unit not given beside the values
# T1 construct: purchased Sigma Aldrich Chemical Company (St. Louis, Mo.)
# Protocol: (§1) First, aliquots of GDH were extensively dialyzed against 0.1M sodium phosphate buffer, pH 7.0, which contained 1 mM ethylenediaminetetraacetic acid (EDTA). The enzyme concentrations were adjusted to 1 mg/ml and the amount of enzyme added to the reaction mixture, for kinetic analysis, was adjusted to yield optimal steady state velocity measurements. All solutions were made immediately prior to use. Enzyme assays were performed by monitoring reduced coenzyme absorbance at 340 nm using a Shimadzu UV-1601 spectrophotometer. The reductive amination reactions were performed in 3 mL volumes at pH 7.0 in the presence of 0.1 mM nicotinamide adenine dinucleotide (NADH), 50 mM NH4Cl, and 5 mM 2-oxoglutarate. The rate of NADH oxidation was calculated using an extinction coefficient of 6.22 mM^−1 cm^−1.
# In this Example, EGCG was added to a reaction (at a final concentration of 0.0, 0.3, or 0.6 μM), along with various concentrations of NADH or 2-oxoglutarate, to further ascertain how EGCG inhibits the reductive amination reaction catalyzed by GDH. Such kinetic analysis was carried out as described above in Example 1.
# GDH [2] = target: T1, GDH; assay: abrogation of EGCG inhibition of GDH by leucine, BCH and ADP; type: biochemical, bovine
# Protocol: as §1
# The ability of the activators BCH, leucine, and ADP to reverse EGCG regulation on GDH was next examined. More particularly, kinetic analysis of GDH activity was carried out as described in Example 1, wherein each reaction contained either (a) 0 μM EGCG plus leucine; (b) 1 μM EGCG plus leucine; (c) 0 μM EGCG plus BCH; (d) 1 μM EGCG plus BCH; (e) 0 μM EGCG plus ADP; or (f) 1 μM EGCG plus ADP.
# [3] = system: HI/HA mutant forms of GDH (R265K, R269C, E296A, S448P, H454Y); assay: kinetic analysis of HI/HA mutant forms of GDH; type: biochemical, human; conditions: FIG. 4
# Protocol: as §1
# To this end, EGCG was tested against five different HI/HA mutant forms of GDH, namely, R265K, R269C, E296A, S448P, and H454Y. In addition, EGCG was tested against human wild type GDH (“WT”), GDH from Tetrahymena thermophilia (“tGDH”) that, like the HI/HA mutant GDH enzymes, is not regulated by GTP, and a human GDH that was missing a certain 48 residue ‘antenna-like’ feature protruding from the top of each of its six subunits that is necessary for ADP, GTP, and Palmitoyl CoA regulation. […]
# islets = assay: [U-14C]-glutamine oxidation in islets; type: cell-based, rat
# Protocol: In a first experiment, a batch of 100 islets were incubated with glucose-free Krebs-Ringer bicarbonate buffer, as described herein, containing 20 μM EGCG or 20 μM EGC and 2 mM glutamine for 60 minutes. The islets were then incubated in the presence of varying concentrations of BCH (shown in FIG. 7A) for 60 minutes, and for an additional 60 minutes in the presence of 2 mCi [U-^14C]-glutamine (NEN-Life Science Products, UK). Next, [U-^14C]-glutamine oxidation in the incubated islets was measured. A trap filter was placed in each tightly sealed glass tube of the perifusion apparatus to collect the ^14CO2 produced by the islets, and the amount of radioactivity was determined by liquid scintillation counting. The results are summarized in FIG. 7A, and are presented as means±S.E. from 4 separate experiments. […] The islets were then incubated in the presence of 10 mM BCH (or no BCH—to measure “baseline” glutamine oxidation levels) for 60 minutes. The islets were then incubated for an additional 60 minutes in the presence of 2 mCi [U-^14C]-glutamine (NEN-Life Science Products, UK). Next, [U-^14C]-glutamine oxidation in the incubated islets was measured, as described above.
# rat islets [4] = assay: insulin secretion and oxygen consumption during glucose stimulation; type: cell-based
# Protocol: Next, insulin secretion and oxygen consumption were measured, as described herein, during glucose stimulation to confirm the above results. Isolated rat islets were isolated and cultured, as described above, with 10 mM glucose for 3 days and subsequently perifused in the oxygen consumption measurement apparatus described above. […] In general, FCCP is known to stimulate Mg^2+-ATPase activity, inhibit β-amyloid production, and mimic the effect of selective glutamate agonist N-methyl-D-aspartate (NMDA) on mitochondrial superoxide production. The results shown in FIG. 9 are presented as means±S.E. for 1000 islets from 3 separate experiments. Due to the high density of data, S.E. is only shown in every 20 samples.
# rat islets [5] = assay: glucose stimulated insulin secretion in 120 minute run-down islets; type: cell-based
# Protocol: Under brief “run-down” conditions used for the above GSIS analysis, where glucose was removed from the cells for only […], the levels of high-energy metabolites (i.e., GTP and ATP) have not been depleted and these effectively shut down GDH activity. This, in turn, eliminated any effect GDH might have on insulin secretion. Therefore, the effects of EGCG were also tested on […] that had been “run-down” for a longer period of time (120 minutes) prior to glucose stimulation (FIG. 11). Specifically, isolated rat islets were cultured with 10 mM glucose for 3 days and then perifused in the absence of glucose and in the presence of 0 or 20 μM EGCG (or 20 μM EGC) for “run-down” periods of 120 minutes prior to stimulation with a glucose ramp (0 to 25 mM, 0.5 mM/minute). Finally, islets were exposed to 30 mM KCl. The insert highlighted the insulin secretion from time=120 minutes to 140 minutes.
# [6] = ethanol, DMSO, dimethyl formamide; stored at −20° C.; cited from earlier work
# [7] = 2-oxoglutarate varied, [EGCG] 0.3 μM
# [8] = 2-oxoglutarate varied, [EGCG] 0.6 μM
# T1 sequence (P00366 58-558): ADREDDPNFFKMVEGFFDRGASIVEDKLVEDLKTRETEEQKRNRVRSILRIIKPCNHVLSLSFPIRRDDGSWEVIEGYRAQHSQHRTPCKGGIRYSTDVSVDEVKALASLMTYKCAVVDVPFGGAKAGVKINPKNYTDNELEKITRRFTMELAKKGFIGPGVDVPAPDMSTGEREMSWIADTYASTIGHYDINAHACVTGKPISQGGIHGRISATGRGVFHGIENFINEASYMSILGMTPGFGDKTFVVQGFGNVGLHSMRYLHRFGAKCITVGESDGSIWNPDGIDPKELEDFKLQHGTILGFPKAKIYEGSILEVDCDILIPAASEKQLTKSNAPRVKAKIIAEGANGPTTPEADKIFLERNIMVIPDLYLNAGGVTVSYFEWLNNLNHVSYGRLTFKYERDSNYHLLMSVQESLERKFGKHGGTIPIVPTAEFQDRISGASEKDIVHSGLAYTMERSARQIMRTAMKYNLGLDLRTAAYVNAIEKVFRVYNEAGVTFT
compound,measurement,setting,value
"O=C(O[C@@H]1Cc2c(O)cc(O)cc2O[C@@H]1c1cc(O)c(O)c(O)c1)c1cc(O)c(O)c(O)c1 [EGCG, (2R,3R)-2-(3,4,5-Trihydroxyphenyl)-3,4-dihydro-1 (2H)-benzopyran-3,5,7-triol 3-(3,4,5-trihydroxybenzoate)]",Slope (Lineweaver-Burke),GDH [1]; [7],0.039 ± 0.002
same,Y-intercept (Lineweaver-Burke),GDH [1]; [7],0.24 ± 0.1
same,Slope (Lineweaver-Burke),GDH [1]; [8],0.15 ± 0.02
same,Y-intercept (Lineweaver-Burke),GDH [1]; [8],0.097 ± 0.5
same,Slope (Lineweaver-Burke),"GDH [1]; NADH varied, [EGCG] 0.3 μM",0.0026 ± 0.0002
same,Y-intercept (Lineweaver-Burke),"GDH [1]; NADH varied, [EGCG] 0.3 μM",0.15 ± 0.01
same,Slope (Lineweaver-Burke),"GDH [1]; NADH varied, [EGCG] 0.6 μM",0.0040 ± 0.0003
same,Y-intercept (Lineweaver-Burke),"GDH [1]; NADH varied, [EGCG] 0.6 μM",0.2000 ± 0.02
same,mode of inhibition,GDH [1]; versus NADH and 2-oxoglutarate,non-competitive inhibition
same,inhibition at 1 µM,"GDH [2]; 1 μM EGCG plus leucine, BCH or ADP, read-out: EGCG inhibition at the highest concentration of activators",~30%
same,inhibition at 1 µM,"GDH [2]; 1 μM EGCG, without activator, read-out: inhibition of the reaction",> 80%
same,inhibition of the activity of HI/HA GDH enzymes,[3],substantially the same efficacy as with wild type human GDH
same,block of BCH stimulation of glutaminolysis (glutamine oxidation),"islets; 20 μM, 2 mM glutamine, FIG. 7A",completely blocked
same,effect on basal levels of glutamine oxidation,"islets; 3 mM glutamine, no BCH, FIG. 7D",does not have an effect
same,effect on 10 mM BCH-stimulated glutamine oxidation,"islets; 3 mM glutamine, FIG. 7B, 7C",inhibits glutamine oxidation in a dose-dependent manner
same,concentration of maximal effects on glutamine oxidation,"islets; 10 mM BCH, 3 mM glutamine, FIG. 7B",approximately 20 μM
same,effect on GSIS,rat islets [4]; FIG. 9A,does not affect
same,effect on respiration during glucose stimulation,rat islets [4]; FIG. 9B,does not affect
same,potentiation of GSIS,"rat islets [5]; 20 μM, 120 minute run-down, FIG. 11",potentiates
same,effect on KCl-stimulated release of insulin,rat islets [5]; 30 mM KCl,neither EGCG or EGC affected
same,stability in organic solvents,[6],at least six months

# Reference: patent publication US20060263453A1, “Methods and compositions for modulating glutamate dehydrogenase” (priority 2004, published 2006)
